Experimental data published in patent publication US7138361B2, “Herbicidal heterocycles” (E. I. du Pont de Nemours and Company, priority 2000, dated 2006).

Tests used:
Assay in all cases: Test C preemergence
Format in all cases: in vivo
Sunflower = conditions: scale 0 to 100, 0 no effect, 100 complete control
[1] = system: goosegrass (Eleusine indica); conditions: for Plant response rating, Goosegrass: scale 0 to 100, 0 no effect, 100 complete control; for Plant response rating (0 to 100), Goosegrass: visual evaluation after 12 to 14 days
Text: (§1) Seeds of plant species selected from bermudagrass (Cynodon dactylon), Surinam grass (Brachiaria decumbens), cocklebur (Xanthium strumarium), corn (Zea mays), crabgrass (Digitaria sanguinalis), woolly cupgrass (Eriochloa villosa), giant foxtail (Setaria faberii), goosegrass (Eleusine indica), johnsongrass (Sorghum halepense), kochia (Kochia scoparia), lambsquarters (Chenopodium album), morningglory (Ipomoea hederacea), yellow nutsedge (Cyperus esculentus), pigweed (Amaranthus retroflexus), common ragweed (Ambrosia elatior), soybean (Glycine max) and velvetleaf (Abutilon theophrasti) were planted and treated preemergence with test chemicals formulated in a non-phytotoxic solvent mixture which included a surfactant.
(§2) At the same time, plants selected from these crop and weed species and also winter barley (Hordeum vulgare), blackgrass (Alopecurus myosuroides), canary grass (Phalaris minor), chickweed (Stellaria media), downy brome (Bromus tectorum), green foxtail (Setaria viridis), Italian ryegrass (Lolium multiflorum), wheat (Triticum aestivum), wild oat (Avena fatua) and windgrass (Apera spica-venti) were treated with postemergence applications of some of the test chemicals formulated in the same manner. Plants ranged in height from 2 to 18 cm (1- to 4-leaf stage) for postemergence treatments. Plant species in the flooded paddy test consisted of rice (Oryza saliva), smallflower flatsedge (Cyperus difformis), duck salad (Heteranthera limosa) and barnyardgrass (Echinochloa crus-galli) grown to the 2-leaf stage for testing. Treated plants and controls were maintained in a greenhouse for 12 to 14 days, after which time all species were compared to controls and visually evaluated. Plant response ratings, summarized in Table C, are based on a scale of 0 to 100 where 0 is no effect and 100 is complete control. A dash (-) response means no test result.

[2] = system: cocklebur (Xanthium strumarium); conditions: for Plant response rating, Cocklebur: scale 0 to 100, 0 no effect, 100 complete control; for Plant response rating (0 to 100), Cocklebur: visual evaluation after 12 to 14 days
Text: as §1, §2

[3] = system: morningglory (Ipomoea hederacea); conditions: for Plant response rating, Morningglory: scale 0 to 100, 0 no effect, 100 complete control
Text: as §1, §2

[4] = system: johnsongrass (Sorghum halepense); conditions: for Plant response rating, Johnsongrass: scale 0 to 100, 0 no effect, 100 complete control; for Plant response rating (0 to 100), Johnsongrass: visual evaluation after 12 to 14 days
Text: as §1, §2

kochia (Kochia scoparia) = conditions: for Plant response rating, Kochia: scale 0 to 100, 0 no effect, 100 complete control; for Plant response rating (0 to 100), Kochia: visual evaluation after 12 to 14 days
Text: as §1, §2

[5] = system: pigweed (Amaranthus retroflexus); conditions: preemergence; for Plant response rating, Pigweed: scale 0 to 100, 0 no effect, 100 complete control
Text: as §1, §2

[6] = system: bermudagrass (Cynodon dactylon); conditions: for Plant response rating, Bermudagrass: scale 0 to 100, 0 no effect, 100 complete control; for Plant response rating (0 to 100 where 0 is no effect and 100 is complete control), Bermudagrass: visual evaluation after 12 to 14 days
Text: as §1, §2

[7] = system: yellow nutsedge (Cyperus esculentus); conditions: for Plant response rating, Nutsedge: scale 0 to 100, 0 no effect, 100 complete control
Text: as §1, §2

[8] = system: common ragweed (Ambrosia elatior); conditions: preemergence; for Plant response rating, Ragweed, Common: scale 0 to 100, 0 no effect, 100 complete control
Text: as §1, §2

[9] = system: Surinam grass (Brachiaria decumbens); conditions: for Plant response rating, Surinam grass: scale 0 to 100, 0 no effect, 100 complete control; for Plant response rating (0 to 100), Surinam grass: visual evaluation after 12 to 14 days
Text: as §1, §2

[10] = system: lambsquarters (Chenopodium album); conditions: for Plant response rating, Lambsquarters: scale 0 to 100, 0 no effect, 100 complete control
Text: as §1, §2

soybean (Glycine max) = conditions: preemergence; for Plant response rating, Soybean: scale 0 to 100, 0 no effect, 100 complete control
Text: as §1, §2

[11] = system: crabgrass (Digitaria sanguinalis); conditions: for Plant response rating, Crabgrass: scale 0 to 100, 0 no effect, 100 complete control; for Plant response rating (0 to 100), Crabgrass: visual evaluation after 12 to 14 days
Text: as §1, §2

Nightshade = conditions: scale 0 to 100, 0 no effect, 100 complete control
Text: as §1, §2

[12] = system: velvetleaf (Abutilon theophrasti); conditions: preemergence; for Plant response rating, Velvetleaf: scale 0 to 100, 0 no effect, 100 complete control
Text: as §1, §2

[13] = system: giant foxtail (Setaria faberii); conditions: for Plant response rating, Foxtail, Giant: scale 0 to 100, 0 no effect, 100 complete control; for Plant response rating (0 to 100), Foxtail, Giant: visual evaluation after 12 to 14 days
Text: as §1, §2

corn (Zea mays) = conditions: for Plant response rating, Corn: scale 0 to 100, 0 no effect, 100 complete control; for Plant response rating (0 to 100), Corn: visual evaluation after 12 to 14 days
Text: as §1, §2

[14] = system: woolly cupgrass (Eriochloa villosa); conditions: for Plant response rating, Cupgrass, Woolly: scale 0 to 100, 0 no effect, 100 complete control; for Plant response rating (0 to 100), Cupgrass, Woolly: visual evaluation after 12 to 14 days
Text: as §1, §2

[15] = preemergence, Rate 500 g/ha, visual evaluation after 12 to 14 days
[16] = Rate 500 g/ha, visual evaluation after 12 to 14 days

Compound: CCC(C)c1ccn(C2OCN(c3cccc(OC(F)(F)F)c3)C2=O)n1 (stereo not drawn) [Compound 67]
- Plant response rating, Sunflower (Sunflower; Rate 125 g/ha): 0
- Plant response rating, Sunflower (Sunflower; Rate 250 g/ha): 0
- Plant response rating, Goosegrass ([1]; Rate 62 g/ha): 100
- Plant response rating (0 to 100), Goosegrass ([1]; preemergence, Rate 250 g/ha): 100
- Plant response rating (0 to 100), Goosegrass ([1]; preemergence, Rate 500 g/ha): 100
- Plant response rating, Goosegrass ([1]; preemergence, Rate 125 g/ha): 100
- Plant response rating, Cocklebur ([2]; Rate 62 g/ha): 0
- Plant response rating (0 to 100), Cocklebur ([2]; preemergence, Rate 250 g/ha): 20
- Plant response rating (0 to 100), Cocklebur ([2]; preemergence, Rate 500 g/ha): 50
- Plant response rating, Cocklebur ([2]; preemergence, Rate 125 g/ha): 0
- Plant response rating, Morningglory ([3]; Rate 62 g/ha): 0
- Plant response rating (0 to 100), Morningglory [3, 15]: 20
- Plant response rating, Morningglory ([3]; preemergence, Rate 125 g/ha): 0
- Plant response rating, Morningglory ([3]; preemergence, Rate 250 g/ha): 0
- Plant response rating, Johnsongrass ([4]; Rate 62 g/ha): 30
- Plant response rating (0 to 100), Johnsongrass ([4]; preemergence, Rate 250 g/ha): 100
- Plant response rating (0 to 100), Johnsongrass ([4]; preemergence, Rate 500 g/ha): 100
- Plant response rating, Johnsongrass ([4]; preemergence, Rate 125 g/ha): 60
- Plant response rating, Kochia (kochia (Kochia scoparia); Rate 62 g/ha): 90
- Plant response rating (0 to 100), Kochia (kochia (Kochia scoparia); preemergence, Rate 250 g/ha): 90
- Plant response rating (0 to 100), Kochia (kochia (Kochia scoparia); preemergence, Rate 500 g/ha): 100
- Plant response rating, Kochia (kochia (Kochia scoparia); preemergence, Rate 125 g/ha): 100
- Plant response rating (0 to 100), Pigweed [5, 16]: 80
- Plant response rating, Pigweed ([5]; Rate 125 g/ha): 90
- Plant response rating, Pigweed ([5]; Rate 250 g/ha): 80
- Plant response rating, Bermudagrass ([6]; Rate 62 g/ha): 100
- Plant response rating (0 to 100 where 0 is no effect and 100 is complete control), Bermudagrass ([6]; preemergence, Rate 250 g/ha): 100
- Plant response rating (0 to 100 where 0 is no effect and 100 is complete control), Bermudagrass ([6]; preemergence, Rate 500 g/ha): 100
- Plant response rating, Bermudagrass ([6]; preemergence, Rate 125 g/ha): 100
- Plant response rating, Nutsedge ([7]; Rate 62 g/ha): 0
- Plant response rating (0 to 100), Nutsedge [7, 15]: 20
- Plant response rating, Nutsedge ([7]; preemergence, Rate 125 g/ha): 40
- Plant response rating, Nutsedge ([7]; preemergence, Rate 250 g/ha): 0
- Plant response rating (0 to 100), Ragweed, Common [8, 16]: 70
- Plant response rating, Ragweed, Common ([8]; Rate 125 g/ha): 20
- Plant response rating, Ragweed, Common ([8]; Rate 250 g/ha): 70
- Plant response rating, Surinam grass ([9]; Rate 62 g/ha): 0
- Plant response rating (0 to 100), Surinam grass ([9]; preemergence, Rate 250 g/ha): 100
- Plant response rating (0 to 100), Surinam grass ([9]; preemergence, Rate 500 g/ha): 100
- Plant response rating, Surinam grass ([9]; preemergence, Rate 125 g/ha): 0
- Plant response rating, Lambsquarters ([10]; Rate 62 g/ha): 100
- Plant response rating (0 to 100), Lambsquarters [10, 15]: 100
- Plant response rating, Lambsquarters ([10]; preemergence, Rate 125 g/ha): 100
- Plant response rating, Lambsquarters ([10]; preemergence, Rate 250 g/ha): 100
- Plant response rating (0 to 100), Soybean (soybean (Glycine max); [16]): 0
- Plant response rating, Soybean (soybean (Glycine max); Rate 125 g/ha): 0
- Plant response rating, Soybean (soybean (Glycine max); Rate 250 g/ha): 0
- Plant response rating, Crabgrass ([11]; Rate 62 g/ha): 100
- Plant response rating (0 to 100), Crabgrass ([11]; preemergence, Rate 250 g/ha): 100
- Plant response rating (0 to 100), Crabgrass ([11]; preemergence, Rate 500 g/ha): 100
- Plant response rating, Crabgrass ([11]; preemergence, Rate 125 g/ha): 100
- Plant response rating, Nightshade (Nightshade; Rate 62 g/ha): 0
- Plant response rating, Nightshade (Nightshade; Rate 125 g/ha): 70
- Plant response rating, Nightshade (Nightshade; Rate 250 g/ha): 80
- Plant response rating (0 to 100), Velvetleaf [12, 16]: 30
- Plant response rating, Velvetleaf ([12]; Rate 125 g/ha): 50
- Plant response rating, Velvetleaf ([12]; Rate 250 g/ha): 0
- Plant response rating, Foxtail, Giant ([13]; Rate 62 g/ha): 100
- Plant response rating (0 to 100), Foxtail, Giant ([13]; preemergence, Rate 250 g/ha): 70
- Plant response rating (0 to 100), Foxtail, Giant ([13]; preemergence, Rate 500 g/ha): 100
- Plant response rating, Foxtail, Giant ([13]; preemergence, Rate 125 g/ha): 100
- Plant response rating, Corn (corn (Zea mays); Rate 62 g/ha): 0
- Plant response rating (0 to 100), Corn (corn (Zea mays); preemergence, Rate 250 g/ha): 0
- Plant response rating (0 to 100), Corn (corn (Zea mays); preemergence, Rate 500 g/ha): 100
- Plant response rating, Corn (corn (Zea mays); preemergence, Rate 125 g/ha): 0
- Plant response rating, Cupgrass, Woolly ([14]; Rate 62 g/ha): 90
- Plant response rating (0 to 100), Cupgrass, Woolly ([14]; preemergence, Rate 250 g/ha): 100
- Plant response rating (0 to 100), Cupgrass, Woolly ([14]; preemergence, Rate 500 g/ha): 100
- Plant response rating, Cupgrass, Woolly ([14]; preemergence, Rate 125 g/ha): 70
